US6127382A, “Amines substituted with a tetrahydroquinolinyl group an aryl or heteroaryl group and an alkyl group, having retinoid-like biological activity” (Allergan Sales, Inc., priority 1999, dated 2000)

Target: T1, RARβ (Homo sapiens, UniProt P10826)
T1 sequence (P10826 1-448 isoform P10826-2): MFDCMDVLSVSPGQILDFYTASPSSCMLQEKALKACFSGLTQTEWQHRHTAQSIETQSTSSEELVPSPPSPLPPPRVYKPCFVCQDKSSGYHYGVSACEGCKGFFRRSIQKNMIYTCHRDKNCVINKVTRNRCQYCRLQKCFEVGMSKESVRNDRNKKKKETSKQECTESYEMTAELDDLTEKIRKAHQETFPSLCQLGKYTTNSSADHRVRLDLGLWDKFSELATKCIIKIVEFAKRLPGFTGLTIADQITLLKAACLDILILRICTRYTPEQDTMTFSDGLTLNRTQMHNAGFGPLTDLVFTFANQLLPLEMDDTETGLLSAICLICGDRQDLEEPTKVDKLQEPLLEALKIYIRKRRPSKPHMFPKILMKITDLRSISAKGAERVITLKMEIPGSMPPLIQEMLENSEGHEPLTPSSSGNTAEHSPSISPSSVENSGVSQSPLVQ
Test: ligand binding assay, RARβ
Conditions: read-out: RAR Bind Ki β
Text: Other assays described below, measure the ability of the compounds of the present invention to bind to, and/or activate various retinoid receptor subtypes. When in these assays a compound binds to a given receptor subtype and activates the transcription of a reporter gene through that subtype, then the compound is considered an agonist of that receptor subtype. […] In the below described assays the ability of the compounds to bind to RARα, RARβ, RARγ, RXRα, RXRβ and RXRγ receptors, and the ability or inability of the compounds to activate transcription of a reporter gene through these receptor subtypes can be tested. […] However, some of the compounds of the invention may behave as retinoid antagonists or partial antagonists and/or as inverse agonists. Because of the complex distribution of the different retinoid receptors in various organs of the mammalian body partial agonists and partial antagonists and compounds which have the characteristics of both may lend themselves to particularly useful therapeutic applications and may avoid serious side effects of conventional retinoid drugs.
A holoreceptor transactivation assay and a ligand binding assay which measure the antagonist/agonist like activity of the compounds of the invention, or their ability to bind to the several retinoid receptor subtypes, respectively, are described in published PCT Application No. WO WO93/11755 (particularly on pages 30-33 and 37-41) published on Jun. 24, 1993, the specification of which is also incorporated herein by reference. A detailed experimental procedure for holoreceptor transactivations has been described by Heyman et al. Cell 68, 397-406, (1992); Allegretto et al. J. Biol. Chem. 268, 26625-26633, and Mangelsdorf et al. The Retinoids: Biology, Chemistry and Medicine, pp 319-349, Raven Press Ltd., New York, which are expressly incorporated herein by reference. The results obtained in this assay are expressed in EC50 numbers, as they are also in the chimeric receptor transactivation assay. The results of ligand binding assay are expressed in Kd numbers. (See Cheng et al. Biochemical Pharmacology Vol. 22 pp 3099-3108, expressly incorporated herein by reference.)
Table 1 discloses the activity of certain exemplary compounds of the invention in the above-described chimeric receptor transactivation assay, holoreceptor transactivation assay and a ligand binding assays. Particularly, the transactivation data pertaining to RAR receptors were obtained in the chimeric assay, and the data pertaining to transactivation of RXR receptors were obtained in the holoreceptor transactivation assay.

Ki [µM] | Compound
> 10 | CC(C)N1CCC(C)(C)c2cc(N(C)c3ccc(C(=O)O)cc3)ccc21 [Compound 10, 4-[(1-Isopropyl-4,4-dimethyl-1,2,3,4-tetrahydroquinolin-6-yl)methylamino]benzoic Acid]
> 10 | Cc1cc2c(cc1N(C)c1ccc(C(=O)O)cc1)C(C)(C)CCN2C(C)C [Compound 22, 4-[(1-Isopropyl-4,4,7-trimethyl-1,2,3,4-tetrahydroquinolin-6-yl)methylamino]benzoic acid]
> 30 | CCN(c1ccc(C(=O)O)cc1)c1ccc2c(c1)C(C)(C)CC(=O)N2C(C)C [Compound 6, 4-[(1-Isopropyl-4,4-dimethyl-2-oxo-1,2,3,4-tetrahydroquinolin-6-yl)ethylamino]benzoic Acid]
11 | Cc1cc2c(cc1N(CC1CC1)c1ccc(C(=O)O)cc1)C(C)(C)CCN2C(C)C [Compound 26, 4-[(1-Isopropyl-4,4,7-trimethyl-1,2,3,4-tetrahydro-quinolin-6-yl)(cyclopropylmethyl)amino]benzoic acid]
> 10 | CC(C)CN(c1ccc(C(=O)O)cc1)c1ccc2c(c1)N(C(C)C)CCC2(C)C [Compound 39, 4-[(1-Isopropyl-4,4-dimethyl-1 2,3,4-tetrahydroquinolin-7-yl)isobutylamino]benzoic acid]
> 10 | CCN(c1ccc(C(=O)O)cc1)c1ccc2c(c1)N(C(C)C)CCC2(C)C [Compound 38, 4-[(1-Isopropyl-4,4-dimethyl-1,2,3,4-tetrahydroquinolin-7-yl)ethylamino]benzoic acid]
24 | CC(C)N1CCC(C)(C)c2ccc(N(CC3CC3)c3ccc(C(=O)O)cc3)cc21 [Compound 40, 4-[(1-Isolpropyl-4,4-dimethyl-1,2,3,4-tetrahydroquinolin-7-yl)(cylopropylmethyl)amino]benzoic acid]
7.9 | CCN(c1ccc(C(=O)O)cc1)c1ccc2c(c1)C(C)(C)CCN2C(C)C [Compound 12, 4-[(1-Isopropyl-4,4-dimethyl-1,2,3,4-tetrahydroquinolin-6-yl)ethylamino]benzoic acid]
> 10 | CCN(c1ccc(C(=O)O)cc1)c1cc2c(cc1C)N(C(C)C)CCC2(C)C [Compound 24, 4-[(1-Isopropyl-4,4,7-trimethyl-1,2,3,4-tetrahydroquinolin-6-yl)ethylamino]benzoic acid]
7.7 | CC(C)CCN(c1ccc(C(=O)O)cc1)c1ccc2c(c1)C(C)(C)CCN2C(C)C [Compound 14, 4-[(1-Isopropyl-4,4-dimethyl-1,2,3,4-tetrahydroquinolin-6-yl)(3-methylbutyl)amino]-benzoic Acid]
